Assay results from article PMC5445010 (Chembiochem : a European journal of chemical biology, 2017).
pKi: −log10 of the molar value. Where two headings read alike, the source gives them in different places.

Assays:
IspH [1] = assay type: biochemical
IspH [2] = conditions: cited from earlier work
IspG = conditions: cited from earlier work

## Nc1ccc2c(c1)CC1(C(=O)NC(=O)NC1=O)C1CN(Cc3ccccc3)CCN21 (stereo not shown) [Compound 9, 8-amino-3-benzyl-2,3,4,4a-tetrahydro-1H,2′H,6H-spiro[pyrazino[1,2-a]quinoline-5,5′-pyrimidine]-2′,4′,6′ (1′H,3′H)-trione]
IspH [1]; read-out: Ki of barbiturate analogs, IspH (summary over enzymes)
  pKi: 5.52 to 6.30

## C#CCOP(=O)(O)OP(=O)(O)O [Compound 5, propargyl diphosphate]
IspH [2]
  IspH inhibition (in words): low μM inhibitors
IspG
  IspG inhibition (in words): low μM inhibitors

## C#CCO [propargyl alcohol]
IspH [1]; read-out: IspH inhibition Ki
  pKi: < 2.00
